Experiment: Exenatide delivery from liquid patch with permeability enhancer through microporated abdomen
Settings: hairless rat abdomen microporated; patch with 20 OuL solution of exenatide (10.5 mg/mL) and agent (3% w/v); fresh solution every four hours

Structure (SMILES): O=C([O-])CC(O)(CC(=O)[O-])C(=O)O.[Na+].[Na+] [disodium citrate]
- exenatide levels over 24 hours: roughly steady levels
